Measured values as given in US10059689B2, “Substituted heteroaryl compounds and methods of use” (Sunshine Lake Pharma Co., Ltd., priority 2014, dated 2018).

Columns and labels:
[1] = Compound stability in human liver microsomes; format: in vitro ADME; settings: for half-life: pH 7.4, 37° C., NADPH, read-out: Human T1/2; for CLint scaled: pH 7.4, in vivo CLint extrapolated
Description: (§1) Human or rat liver microsomes incubations were conducted in duplicate in polypropylene tubes. The typical incubation mixtures consisted of human or rat liver microsomes (0.5 mg protein/mL), compounds of interest (5 μM) and NADPH (1.0 mM) in a total volume of 200 μL potassium phosphate buffer (PBS, 100 mM, pH 7.4). Compounds were dissolved in DMSO and diluted with PBS such that the final concentration of DMSO was 0.05%. The enzymatic reactions were commenced with the addition of protein after a 3-min preincubation and incubated in a water bath open to the air at 37° C. Reactions were terminated at various time points (0, 5, 10, 15, 30, 60 min) by adding equal volume of ice-cold acetonitrile. The samples were stored at −80° C. until LC/MS/MS assays.
(§2) The concentrations of compounds in the incubation mixtures of human or rat liver microsomes were determined by a LC/MS/MS method. The ranges of the linearity in the concentration range were determined for each tested compounds.
(§3) A parallel incubation was performed using denatured microsomes as the negative control, and reactions were terminated at various time points (0, 15, 60 min) after incubation at 37° C.
(§4) Verapamil (1 μM) was selected as the positive control, and reactions were terminated at various time points (0, 5, 10, 15, 30, 60 min) after incubation at 37° C. Both positive and negative control samples were included in each assay to ensure the integrity of the microsomal incubation system.
(§5) In addition, the stability date of compound in human and rat liver microsomes was also obtained through the following method. Human or rat liver microsomes incubations were conducted in duplicate in polypropylene tubes. The typical incubation mixtures consisted of human or rat liver microsomes (0.5 mg protein/mL), compounds of interest (1.5 μM) and EDTA (1.0 mM) in a total volume of 30 μL potassium phosphate buffer (PBS, 100 mM, pH 7.4). Compounds were dissolved in DMSO and diluted with PBS such that the final concentration of DMSO was 0.2%. The enzymatic reactions were commenced with the addition of 15 μL NADPH (final concentration: 2 mM) after a 10-min preincubation and incubated in a water bath open to the air at 37° C. Reactions were terminated at various time points (0, 15, 30, 60 min) by adding 135 μL acetonitrile (contain IS). The samples were centrifuged at 4000 rpm for 10 min to remove protein, the supernatant was stored at −80° C. until LC/MS/MS assays. Ketanserin (1 μM) was selected as the positive control, and reactions were terminated at various time points (0, 15, 30, 60 min) after incubation at 37° C. Both positive and negative control samples were included in each assay to ensure the integrity of the microsomal incubation system.
(§6) The concentrations of compounds in human or rat liver microsome incubations were plotted as a percentage of the relevant zero time point control for each reaction. The in vivo CLint were extrapolated (ref.: Naritomi, Y.; Terashita, S.; Kimura, S.; Suzuki, A.; Kagayama, A.; and Sugiyama, Y.; Prediction of human hepatic clearance from in vivo animal experiments and in vitro metabolic studies with liver microsomes from animals and humans. Drug Metab. Dispos., 2001, 29: 1316-1324).

[2] = Pharmacokinetics after intravenous and oral administration in rats; format: in vivo; settings: for clearance (CL) / AUC(0-t) / half-life / Vd: iv dosing, 1 mg/kg; for F: oral bioavailability; for AUC(0-t) / half-life / Vd: rat, plasma; for Vd: read-out: Vss
Description: The LC/MS/MS system used in the analysis consists of an Agilent 1200 Series vacuum degasser, binary pump, well-plate autosampler, thermostatted column compartment, the Agilent G6430 Triple Quadrupole Mass Spectrometer with an electrosprayionization (ESI) source. Quantitative analysis was carried out using MRM mode. The parameters for MRM transitions are in the Table A.
An Agilent XDB-C18, 2.1×30 mm, 3.5 μM column was used for the analysis. 5 μL of the samples were injected. Analysis condition: The mobile phase was 0.1% formic acid in water (A) and 0.1% formic acid in methanol (B). The flow rate was 0.4 mL/min. And the gradient of Mobile phase was in the Table B.
Alternatively, an Agilent 6330 series LC/MS/MS spectrometer equipped with G1312A binary pumps, a G1367A autosampler and a G1314C UV detector were used in the analysis. An ESI source was used on the LC/MS/MS spectrometer. The analysis was done in positive ion mode as appropriate and the MRM transition for each analyte was optimized using standard solution. A Capcell MP-C18 100×4.6 mm I.D., […] column (Phenomenex, Torrance, Calif., USA) was used during the analysis. The mobile phase was 5 mM ammonia acetate, 0.1% MeOH in water (A): 5 mM ammonia acetate, 0.1% MeOH in acetonitrile (B) (70:30, v/v). The flow rate was 0.6 mL/min. Column was maintained at ambient temperature. 20 μL of the samples were injected.
The compounds disclosed herein are assessed in pharmacokinetic studies in mice, rats, dogs or monkeys. The compounds are administered as a water solution, 2% HPMC+1% TWEEN®80 in water solution, 5% DMSO+5% solutol in saline, 4% MC suspension or capsule. For the intravenous administration, the animals are generally given at 1 or 2 mg/kg dose. For the oral (p.o.) dosing, mice and rats are generally given 5 or 10 mg/kg dose, and dogs and monkeys are generally given 10 mg/kg dose. The blood samples (0.3 mL) are drawn at 0.25, 0.5, 1.0, 2.0, 3.0, 4.0, 6.0, 8.0, 12 and 24 h time points or 0.083, 0.25, 0.5, 1.0, 2.0, 4.0, 6.0, 8.0 and 24 h time points and centrifuged at 3,000 or 4000 rpm for 2 to 10 min. The plasma solutions are collected, and stored at −20° C. or −70° C. until analyzed by LC/MS/MS as described above.

[3] = Compound stability in rat liver microsomes; format: in vitro ADME; settings: for half-life: pH 7.4, 37° C., NADPH, read-out: Rat T1/2; for CLint scaled: pH 7.4, in vivo CLint extrapolated
Description: as §1, §2, §3, §4, §5, §6

JAK1 (h) = biological target: T1, JAK1 (h) (Homo sapiens, UniProt P23458); test: JAK1 (h) kinase assay; format: biochemical
T1 construct: purchased Millipore UK Ltd (contract assay service)
Description: The above assay procedure can be used to determine the IC50 for inhibition and/or the inhibition constant, Ki. The IC50 is defined as the concentration of compound required to reduce the enzyme activity by 50% under the condition of the assay. The IC50 value is estimated by preparing a 10 point curve using a ½ log dilution series (for example, a typical curve may be prepared using the following compound concentrations: 3 μM, 1 μM, 0.3 μM, 0.1 μM, 0.03 μM, 0.01 μM, 0.003 μM, 0.001 μM, 0.0003 μM and 0 μM).
JAK1 (h) is incubated with 20 mM Tris/HCl pH 7.5, 0.2 mM EDTA, 500 μM GEEPLYWSFPAKKK, 10 mM MgAcetate and [γ-^33P-ATP] (specific activity approx. 500 cpm/pmol, concentration as required). The reaction is initiated by the addition of the MgATP mix. After incubation for 40 minutes at room temperature, the reaction is stopped by the addition of 3% phosphoric acid solution. 10 μL of the reaction is then spotted onto a P30 filtermat and washed three times for 5 minutes in 75 mM phosphoric acid and once in methanol prior to drying and scintillation counting.
The kinase assays described herein were performed at Millipore UK Ltd, Dundee Technology Park, Dundee DD2 1SW, UK.

T1 sequence (P23458 whole entry): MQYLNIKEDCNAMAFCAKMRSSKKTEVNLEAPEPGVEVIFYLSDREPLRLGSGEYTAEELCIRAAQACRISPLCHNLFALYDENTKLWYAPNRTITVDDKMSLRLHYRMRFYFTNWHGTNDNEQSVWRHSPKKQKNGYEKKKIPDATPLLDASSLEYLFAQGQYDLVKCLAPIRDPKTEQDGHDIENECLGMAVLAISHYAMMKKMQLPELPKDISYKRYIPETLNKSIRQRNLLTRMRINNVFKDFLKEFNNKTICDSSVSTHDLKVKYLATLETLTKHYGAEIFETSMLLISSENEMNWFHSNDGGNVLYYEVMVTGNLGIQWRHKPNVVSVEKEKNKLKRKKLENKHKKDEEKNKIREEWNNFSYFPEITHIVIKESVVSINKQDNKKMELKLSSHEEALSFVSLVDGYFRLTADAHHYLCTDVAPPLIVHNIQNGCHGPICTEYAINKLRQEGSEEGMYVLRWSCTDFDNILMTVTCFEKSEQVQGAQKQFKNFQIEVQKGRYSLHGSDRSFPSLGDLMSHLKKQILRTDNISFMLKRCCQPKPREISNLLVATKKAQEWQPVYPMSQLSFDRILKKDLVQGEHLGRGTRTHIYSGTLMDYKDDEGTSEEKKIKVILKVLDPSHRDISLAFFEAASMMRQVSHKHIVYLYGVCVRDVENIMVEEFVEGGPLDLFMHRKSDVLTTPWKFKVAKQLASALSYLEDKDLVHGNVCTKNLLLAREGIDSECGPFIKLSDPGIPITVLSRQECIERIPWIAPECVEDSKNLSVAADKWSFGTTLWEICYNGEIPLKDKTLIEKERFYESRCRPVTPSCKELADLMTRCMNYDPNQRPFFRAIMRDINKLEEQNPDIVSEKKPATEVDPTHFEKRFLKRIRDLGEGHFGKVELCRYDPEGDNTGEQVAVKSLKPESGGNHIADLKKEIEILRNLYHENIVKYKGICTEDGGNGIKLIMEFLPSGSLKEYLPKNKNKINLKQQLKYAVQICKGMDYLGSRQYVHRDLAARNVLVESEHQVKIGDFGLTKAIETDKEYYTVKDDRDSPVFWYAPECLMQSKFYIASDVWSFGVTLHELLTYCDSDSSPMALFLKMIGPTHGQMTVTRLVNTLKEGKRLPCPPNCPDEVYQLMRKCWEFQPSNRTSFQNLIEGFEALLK

Compound	half-life [1]	CLint scaled [1]	clearance (CL) [2]	F [2]	AUC(0-t) [2]	half-life [2]	Vd [2]	half-life [3]	CLint scaled [3]	IC50 (JAK1 (h))
CCC1CN(c2ccc(C#N)cn2)CCC1Nc1nc(Nc2cc(C)n(C)n2)ncc1Cl (stereo not drawn) [Ex. 21, 6-(4-((5-chloro-2-((1,5-dimethyl-1H-pyrazol-3-yl)amino)pyrimidin-4-yl)amino)-3-ethylpiperidin-1-yl)nicotinonitrile]	17.9 min	97.3 mL/min/kg	6.83 mL/min/kg	106.1%	2320 ng·h/mL	93.6 min	0.81 L/kg	38.8 min	64 mL/min/kg	–
Cc1cc(Nc2ncc(Cl)c(N(C)C3CCN(c4ccc(C#N)cn4)CC3)n2)nn1C [Ex. 9, 6-(4-((5-chloro-2-((1,5-dimethyl-1H-pyrazol-3-yl)amino)pyrimidin-4-yl) (methyl)amino)piperidin-1-yl)nicotinonitrile]	17.9 min	96.9 mL/min/kg	48.8 mL/min/kg	45.8%	350 ng·h/mL	54 min	2.63 L/kg	10.4 min	240 mL/min/kg	4 nM
CCC1CN(c2ccc(C#N)nn2)CCC1N(C)c1nc(Nc2ccc3c(C)n(C)nc3c2)ncc1Cl (stereo not drawn) [Ex. 19, 6-(4-((5-chloro-2-((2,3-dimethyl-2H-indazol-6-yl)amino)pyrimidin-4-yl)(methyl)amino)-3-ethylpiperidin-1-yl)pyridazine-3-carbonitrile]	10.5 min	165 mL/min/kg	43.8 mL/min/kg	23.4%	381 ng·h/mL	27 min	1.4 L/kg	6.55 min	379 mL/min/kg	–
CCC1CN(c2ccc(C#N)nn2)CCC1Nc1ccnc(Nc2cc(C)n(C)n2)n1 (stereo not drawn) [Ex. 22, 6-(4-((2-((1,5-dimethyl-1H-pyrazol-3-yl)amino)pyrimidin-4-yl)amino)-3-ethylpiperidin-1-yl)pyridazine-3-carbonitrile]	62.6 min	27.8 mL/min/kg	33.2 mL/min/kg	62.7%	512 ng·h/mL	39.6 min	1.66 L/kg	45.5 min	54.6 mL/min/kg	–
CCC1CN(c2ccc(C#N)cn2)CCC1Nc1nc(Nc2ccc3c(C)n(C)nc3c2)ncc1Cl (stereo not drawn) [Ex. 23]	15.5 min	112 mL/min/kg	6.83 mL/min/kg	31.0%	2430 ng·h/mL	81 min	0.84 L/kg	20.4 min	121 mL/min/kg	–
CCC1CN(c2ccc(C#N)cn2)CCC1N(C)c1nc(Nc2ccc3c(C)n(C)nc3c2)ncc1Cl (stereo not drawn) [Ex. 20, 6-(4-((5-chloro-2-((2,3-dimethyl-2H-indazol-6-yl)amino)pyrimidin-4-yl)(methyl)amino)-3-ethylpiperidin-1-yl)nicotinonitrile]	26 min	66.9 mL/min/kg	18.3 mL/min/kg	30.4%	881 ng·h/mL	90 min	1.9 L/kg	15 min	166 mL/min/kg	–
Cc1c2ccc(Nc3ncc(Cl)c(N(C)C4CCN(c5ccc(C#N)nn5)CC4)n3)cc2nn1C [Ex. 24]	6.4 min	272 mL/min/kg	–	–	–	–	–	7.12 min	349 mL/min/kg	–
CCC1CN(c2ccc(C#N)nn2)CCC1Nc1nc(Nc2ccc3c(C)n(C)nc3c2)ncc1Cl (stereo not drawn) [Ex. 17, 6-(4-((5-chloro-2-((2,3-dimethyl-2H-indazol-6-yl)amino)pyrimidin-4-yl)amino)-3-ethylpiperidin-1-yl)pyridazine-3-carbonitrile]	11.1 min	156 mL/min/kg	18.3 mL/min/kg	36.0%	911 ng·h/mL	40.2 min	0.45 L/kg	3.81 min	652 mL/min/kg	–
CCC1CN(c2ccc(C#N)cn2)CCC1Nc1nc(Nc2cn(C)nc2C)ncc1Cl (stereo not drawn) [Ex. 16, 6-(4-((5-chloro-2-((1,3-dimethyl-1H-pyrazol-4-yl)amino)pyrimidin-4-yl)amino)-3-ethylpiperidin-1-yl)nicotinonitrile]	3.94 min	442 mL/min/kg	23.3 mL/min/kg	60.9%	722 ng·h/mL	39.6 min	0.96 L/kg	6.85 min	363 mL/min/kg	–
Cc1c2ccc(Nc3ncc(Cl)c(N(C)C4CCN(c5ccc(C#N)cn5)CC4)n3)cc2nn1C [Ex. 8, 6-(4-((5-chloro-2-((2,3-dimethyl-2H-indazol-6-yl)amino)pyrimidin-4-yl) (methyl)amino)piperidin-1-yl)nicotinonitrile]	–	–	–	–	–	–	–	–	–	3 nM
CCC1CN(c2ccc(C#N)cn2)CCC1N(C)c1nc(Nc2cc(C)n(C)n2)ncc1Cl (stereo not drawn) [Ex. 18, 6-(4-((5-chloro-2-((1,5-dimethyl-1H-pyrazol-3-yl)amino)pyrimidin-4-yl) (methyl)amino)-3-ethylpiperidin-1-yl)nicotinonitrile]	22.9 min	75.9 mL/min/kg	23.7 mL/min/kg	66.8%	663 ng·h/mL	109 min	2.88 L/kg	37.6 min	66.1 mL/min/kg	–
